Laboratory results as given in ChEMBL document CHEMBL5532651, “HDAC specificity and kinase off-targeting by purine-benzohydroxamate anti-hematological tumor agents” (Eur J Med Chem, 2024).
Calls of active or inactive are those of the source. The rule behind the calls is not given here.

Key:
U-937 = assay: Inhibition of cell proliferation of human U-937 cells assessed as reduction in Ki-67 expression at IC50 measured after 48 hrs by flow cytometry; assay type: functional, cell-based
[1] = molecular target: T1, Protein deacetylase HDAC6 (Homo sapiens) (UniProt Q9UBN7); assay: Inhibition of HDAC6 in human Jurkat cells assessed as increase in acetyl-alpha-tubulin level at IC50 incubated for 48 hrs by Western blot analysis; assay type: cell-based
T1 sequence (whole entry): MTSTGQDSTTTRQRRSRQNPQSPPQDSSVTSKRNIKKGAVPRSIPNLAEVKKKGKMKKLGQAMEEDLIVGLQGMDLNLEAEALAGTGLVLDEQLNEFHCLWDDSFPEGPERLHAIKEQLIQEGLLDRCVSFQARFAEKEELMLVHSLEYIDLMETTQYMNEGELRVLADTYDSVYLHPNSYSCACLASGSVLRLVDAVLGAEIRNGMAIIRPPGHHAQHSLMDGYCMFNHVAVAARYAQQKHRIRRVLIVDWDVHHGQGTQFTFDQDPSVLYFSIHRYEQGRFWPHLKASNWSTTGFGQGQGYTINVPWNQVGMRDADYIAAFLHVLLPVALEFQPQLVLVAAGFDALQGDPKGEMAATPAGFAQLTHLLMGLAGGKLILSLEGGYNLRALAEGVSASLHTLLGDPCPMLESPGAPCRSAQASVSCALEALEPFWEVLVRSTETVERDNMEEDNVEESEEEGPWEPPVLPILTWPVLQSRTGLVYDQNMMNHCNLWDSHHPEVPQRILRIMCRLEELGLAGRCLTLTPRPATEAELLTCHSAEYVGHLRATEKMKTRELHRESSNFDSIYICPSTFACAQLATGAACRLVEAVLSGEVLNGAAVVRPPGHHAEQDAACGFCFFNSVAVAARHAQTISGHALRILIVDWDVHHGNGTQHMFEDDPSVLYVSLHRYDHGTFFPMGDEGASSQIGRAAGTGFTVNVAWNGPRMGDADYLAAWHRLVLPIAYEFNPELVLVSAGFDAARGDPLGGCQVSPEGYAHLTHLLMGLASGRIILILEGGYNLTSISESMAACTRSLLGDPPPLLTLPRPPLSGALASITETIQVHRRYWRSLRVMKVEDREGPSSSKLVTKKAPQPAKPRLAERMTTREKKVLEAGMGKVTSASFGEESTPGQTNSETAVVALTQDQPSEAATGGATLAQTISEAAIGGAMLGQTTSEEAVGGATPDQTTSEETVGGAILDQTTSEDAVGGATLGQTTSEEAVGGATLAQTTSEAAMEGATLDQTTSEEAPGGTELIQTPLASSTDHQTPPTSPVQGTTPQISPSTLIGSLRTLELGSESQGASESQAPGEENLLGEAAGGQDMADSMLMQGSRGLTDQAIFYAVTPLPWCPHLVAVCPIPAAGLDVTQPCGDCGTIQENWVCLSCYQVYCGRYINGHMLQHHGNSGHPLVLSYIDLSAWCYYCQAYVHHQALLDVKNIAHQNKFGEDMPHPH

Histone deacetylase 1 [2] = molecular target: T2, Histone deacetylase 1 (Homo sapiens, UniProt Q13547); assay: Inhibition of HDAC1 in human NAMALVA cells assessed as increase in acetyl-alpha-tubulin level at IC50 incubated for 48 hrs by Western blot analysis; assay type: cell-based
T2 sequence (Q13547 whole entry): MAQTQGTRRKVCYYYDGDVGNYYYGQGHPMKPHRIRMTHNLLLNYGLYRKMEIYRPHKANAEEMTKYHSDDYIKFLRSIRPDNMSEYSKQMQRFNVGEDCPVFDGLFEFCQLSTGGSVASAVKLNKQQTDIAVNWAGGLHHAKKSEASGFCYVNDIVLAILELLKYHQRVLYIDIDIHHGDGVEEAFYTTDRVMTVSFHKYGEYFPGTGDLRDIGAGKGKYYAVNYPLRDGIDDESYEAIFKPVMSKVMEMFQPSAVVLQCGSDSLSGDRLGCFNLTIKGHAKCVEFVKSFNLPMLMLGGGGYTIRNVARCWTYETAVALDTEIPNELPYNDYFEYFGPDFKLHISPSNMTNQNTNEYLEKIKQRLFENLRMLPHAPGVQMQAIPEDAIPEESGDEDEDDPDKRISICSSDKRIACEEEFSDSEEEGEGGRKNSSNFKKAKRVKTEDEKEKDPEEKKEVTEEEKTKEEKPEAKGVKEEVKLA

[3] = Selectivity index, ratio of IC50 for human HCT-116 cells to IC50 for human Jurkat cells; assay type: functional
[4] = Selectivity index, ratio of IC50 for human leukocytes cells to IC50 for human Jurkat cells; assay type: functional
CYP1A2 = molecular target: T3, CYP1A2 (Homo sapiens, UniProt P05177); assay: Inhibition of CYP1A2 in liver microsomes (unknown origin) at 10 uM incubated for 10 mins relative to control; assay type: ADME, Microsome
T3 sequence (P05177 whole entry): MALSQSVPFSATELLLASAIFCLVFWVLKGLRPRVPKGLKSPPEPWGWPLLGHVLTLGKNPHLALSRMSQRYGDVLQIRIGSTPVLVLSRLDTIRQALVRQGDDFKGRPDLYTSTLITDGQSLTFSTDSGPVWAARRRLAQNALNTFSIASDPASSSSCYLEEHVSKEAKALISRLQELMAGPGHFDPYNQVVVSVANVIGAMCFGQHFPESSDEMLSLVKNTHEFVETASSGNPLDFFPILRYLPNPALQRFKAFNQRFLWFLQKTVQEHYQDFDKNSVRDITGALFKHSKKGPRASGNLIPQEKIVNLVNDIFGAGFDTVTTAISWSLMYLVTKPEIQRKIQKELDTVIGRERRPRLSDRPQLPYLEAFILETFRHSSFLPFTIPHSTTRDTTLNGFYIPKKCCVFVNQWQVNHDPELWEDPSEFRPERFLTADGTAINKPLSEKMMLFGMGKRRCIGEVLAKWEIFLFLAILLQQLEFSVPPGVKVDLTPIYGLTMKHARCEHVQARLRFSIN

[5] = Selectivity index, ratio of IC50 for human HS5 cells to IC50 for human NAMALVA cells; assay type: functional
[6] = molecular target: Tyrosine-protein kinase JAK2 (Homo sapiens, UniProt O60674); assay: Inhibition of JAK2 (unknown origin) preincubated for 30 mins followed by ATP addition measured after 30 mins by HTRF assay
Sequence of Tyrosine-protein kinase JAK2 (O60674 whole entry): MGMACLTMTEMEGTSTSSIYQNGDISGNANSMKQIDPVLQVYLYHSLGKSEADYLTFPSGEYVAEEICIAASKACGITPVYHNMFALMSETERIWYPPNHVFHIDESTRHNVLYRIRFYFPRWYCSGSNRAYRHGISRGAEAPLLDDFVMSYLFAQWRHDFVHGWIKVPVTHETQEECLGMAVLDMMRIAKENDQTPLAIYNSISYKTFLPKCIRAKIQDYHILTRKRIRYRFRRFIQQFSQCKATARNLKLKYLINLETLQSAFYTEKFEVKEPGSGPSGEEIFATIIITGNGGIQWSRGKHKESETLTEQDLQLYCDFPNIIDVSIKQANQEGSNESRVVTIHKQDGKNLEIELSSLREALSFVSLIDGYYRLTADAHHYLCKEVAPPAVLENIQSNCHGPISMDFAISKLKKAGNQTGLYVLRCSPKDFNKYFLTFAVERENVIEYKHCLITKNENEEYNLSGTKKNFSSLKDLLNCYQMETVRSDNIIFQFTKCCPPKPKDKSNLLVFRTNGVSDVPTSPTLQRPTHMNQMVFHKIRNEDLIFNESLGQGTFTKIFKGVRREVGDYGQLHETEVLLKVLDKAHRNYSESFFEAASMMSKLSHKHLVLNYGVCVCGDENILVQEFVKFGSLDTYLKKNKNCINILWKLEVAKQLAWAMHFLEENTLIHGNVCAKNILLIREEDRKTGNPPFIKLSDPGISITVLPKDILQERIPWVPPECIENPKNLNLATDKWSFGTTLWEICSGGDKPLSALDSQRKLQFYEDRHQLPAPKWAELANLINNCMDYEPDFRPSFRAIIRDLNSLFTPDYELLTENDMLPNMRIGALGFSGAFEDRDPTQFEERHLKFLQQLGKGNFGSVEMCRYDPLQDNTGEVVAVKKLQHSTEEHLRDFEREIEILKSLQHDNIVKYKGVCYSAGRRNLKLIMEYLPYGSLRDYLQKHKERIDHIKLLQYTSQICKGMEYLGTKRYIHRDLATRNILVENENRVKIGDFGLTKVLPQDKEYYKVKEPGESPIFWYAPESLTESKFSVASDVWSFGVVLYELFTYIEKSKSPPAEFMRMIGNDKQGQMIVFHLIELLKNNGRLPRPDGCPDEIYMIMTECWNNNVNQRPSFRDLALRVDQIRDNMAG

Jurkat [7] = assay: cells; details: Homo sapiens
[8] = Selectivity index, ratio of IC50 for human HCT-116 cells to IC50 for human NAMALVA cells; assay type: functional
[9] = molecular target: Tyrosine-protein kinase JAK3 (Homo sapiens) (UniProt P52333); assay: Inhibition of JAK3 (unknown origin) at 100 uM preincubated for 20 mins followed by 33P-ATP addition measured after 2 hrs by HotSpot kinase assay relative to control; details: time 140.0 min
Sequence of Tyrosine-protein kinase JAK3 (Homo sapiens) (P52333 whole entry): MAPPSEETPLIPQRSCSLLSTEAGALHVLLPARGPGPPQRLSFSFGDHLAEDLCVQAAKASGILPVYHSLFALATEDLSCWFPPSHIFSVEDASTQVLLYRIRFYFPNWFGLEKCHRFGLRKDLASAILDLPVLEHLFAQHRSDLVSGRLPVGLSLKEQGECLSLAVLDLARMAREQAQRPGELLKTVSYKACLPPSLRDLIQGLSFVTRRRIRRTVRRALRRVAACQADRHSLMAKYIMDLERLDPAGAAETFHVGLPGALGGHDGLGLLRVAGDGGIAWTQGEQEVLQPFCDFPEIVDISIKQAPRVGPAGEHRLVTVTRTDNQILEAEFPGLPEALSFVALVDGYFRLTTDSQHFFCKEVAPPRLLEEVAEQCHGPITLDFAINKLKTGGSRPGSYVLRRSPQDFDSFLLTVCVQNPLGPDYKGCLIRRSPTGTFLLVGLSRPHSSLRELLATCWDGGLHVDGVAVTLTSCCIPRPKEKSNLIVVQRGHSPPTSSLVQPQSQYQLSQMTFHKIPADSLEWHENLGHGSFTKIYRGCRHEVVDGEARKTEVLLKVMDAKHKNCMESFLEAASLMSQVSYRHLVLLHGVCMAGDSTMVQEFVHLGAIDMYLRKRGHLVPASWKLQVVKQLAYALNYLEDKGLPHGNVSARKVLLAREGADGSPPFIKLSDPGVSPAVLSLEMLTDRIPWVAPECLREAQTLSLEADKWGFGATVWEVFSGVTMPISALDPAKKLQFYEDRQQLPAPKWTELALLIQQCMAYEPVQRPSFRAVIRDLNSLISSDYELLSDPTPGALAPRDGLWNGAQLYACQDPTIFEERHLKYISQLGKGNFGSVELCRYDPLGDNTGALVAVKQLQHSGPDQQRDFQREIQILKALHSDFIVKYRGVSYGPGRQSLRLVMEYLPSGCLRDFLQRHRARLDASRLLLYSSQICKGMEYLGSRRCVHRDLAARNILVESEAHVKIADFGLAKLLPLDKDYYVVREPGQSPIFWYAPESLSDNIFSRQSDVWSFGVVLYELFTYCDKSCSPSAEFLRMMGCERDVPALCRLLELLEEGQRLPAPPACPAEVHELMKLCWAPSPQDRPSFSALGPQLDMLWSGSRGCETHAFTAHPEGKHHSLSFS

[10] = molecular target: High affinity nerve growth factor receptor (Homo sapiens) (UniProt P04629); assay: Inhibition of TRKa (unknown origin) at 100 uM preincubated for 20 mins followed by 33P-ATP addition measured after 2 hrs by HotSpot kinase assay relative to control; details: time 140.0 min
Sequence of High affinity nerve growth factor receptor (Homo sapiens) (P04629 33-796 limits assumed): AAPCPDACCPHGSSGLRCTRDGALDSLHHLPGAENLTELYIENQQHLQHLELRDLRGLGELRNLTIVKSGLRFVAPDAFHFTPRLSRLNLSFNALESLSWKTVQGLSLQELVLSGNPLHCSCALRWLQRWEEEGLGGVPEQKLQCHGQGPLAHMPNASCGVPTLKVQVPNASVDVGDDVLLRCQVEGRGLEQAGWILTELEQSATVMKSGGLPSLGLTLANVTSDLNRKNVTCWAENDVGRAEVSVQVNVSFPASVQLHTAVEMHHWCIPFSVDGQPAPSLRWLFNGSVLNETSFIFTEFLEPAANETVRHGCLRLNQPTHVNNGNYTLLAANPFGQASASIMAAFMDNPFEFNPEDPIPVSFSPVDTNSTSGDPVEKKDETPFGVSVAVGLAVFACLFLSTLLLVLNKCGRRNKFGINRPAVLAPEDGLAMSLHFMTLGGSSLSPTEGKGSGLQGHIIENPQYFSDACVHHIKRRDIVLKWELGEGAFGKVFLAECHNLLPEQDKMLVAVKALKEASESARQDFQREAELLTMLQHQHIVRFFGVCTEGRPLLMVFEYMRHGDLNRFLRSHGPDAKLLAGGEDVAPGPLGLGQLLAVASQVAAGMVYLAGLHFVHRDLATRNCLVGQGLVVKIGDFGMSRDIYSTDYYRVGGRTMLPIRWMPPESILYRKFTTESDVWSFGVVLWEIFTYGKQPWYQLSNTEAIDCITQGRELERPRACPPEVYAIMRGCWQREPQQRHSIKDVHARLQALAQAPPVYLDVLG

Histone deacetylase 1 [11] = molecular target: T2, Histone deacetylase 1; assay: Inhibition of HDAC1 in human Jurkat cells assessed as increase in acetyl-histone H3 level at IC50 incubated for 48 hrs by Western blot analysis; assay type: cell-based
[12] = molecular target: Phosphatidylinositol 4,5-bisphosphate 3-kinase catalytic subunit alpha isoform (Homo sapiens) (UniProt P42336); assay: Inhibition of PI3Ka (unknown origin) at 100 uM preincubated for 20 mins followed by 33P-ATP addition measured after 2 hrs by HotSpot kinase assay relative to control; details: time 140.0 min
Sequence of Phosphatidylinositol 4,5-bisphosphate 3-kinase catalytic subunit alpha isoform (Homo sapiens) (P42336 whole entry, canonical isoform): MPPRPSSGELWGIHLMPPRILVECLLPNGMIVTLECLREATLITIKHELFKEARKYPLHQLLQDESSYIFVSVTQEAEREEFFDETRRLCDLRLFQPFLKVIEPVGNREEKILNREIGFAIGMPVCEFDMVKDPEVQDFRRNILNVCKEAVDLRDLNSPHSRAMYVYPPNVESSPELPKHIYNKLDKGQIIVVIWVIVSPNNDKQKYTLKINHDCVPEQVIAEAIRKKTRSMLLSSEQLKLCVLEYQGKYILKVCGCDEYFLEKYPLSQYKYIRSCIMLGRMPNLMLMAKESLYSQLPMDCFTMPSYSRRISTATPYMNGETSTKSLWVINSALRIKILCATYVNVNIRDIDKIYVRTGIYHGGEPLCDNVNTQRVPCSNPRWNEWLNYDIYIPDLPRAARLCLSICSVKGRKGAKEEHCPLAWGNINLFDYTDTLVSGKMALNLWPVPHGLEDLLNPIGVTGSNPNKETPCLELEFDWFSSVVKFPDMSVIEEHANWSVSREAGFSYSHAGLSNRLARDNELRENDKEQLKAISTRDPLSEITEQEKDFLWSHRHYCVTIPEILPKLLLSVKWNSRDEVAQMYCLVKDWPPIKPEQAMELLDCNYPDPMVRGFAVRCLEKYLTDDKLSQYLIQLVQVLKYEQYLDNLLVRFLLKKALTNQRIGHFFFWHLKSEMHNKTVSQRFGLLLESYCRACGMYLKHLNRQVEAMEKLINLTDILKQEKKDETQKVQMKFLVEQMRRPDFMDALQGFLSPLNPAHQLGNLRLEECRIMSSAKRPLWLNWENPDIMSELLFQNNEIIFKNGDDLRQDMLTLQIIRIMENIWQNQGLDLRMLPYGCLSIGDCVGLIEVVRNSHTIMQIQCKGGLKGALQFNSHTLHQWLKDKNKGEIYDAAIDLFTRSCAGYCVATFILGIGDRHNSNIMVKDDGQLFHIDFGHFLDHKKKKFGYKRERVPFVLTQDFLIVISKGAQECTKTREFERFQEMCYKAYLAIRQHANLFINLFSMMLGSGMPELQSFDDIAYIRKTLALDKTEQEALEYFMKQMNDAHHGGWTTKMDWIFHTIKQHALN

[13] = Stability in mouse liver microsome assessed as half life at 1 uM measured for 60 mins by LC-MS/MS analysis; assay type: ADME; details: liver microsomes
Jurkat [14] = assay: Potency index, ratio of Vorinostat IC50 to test compound IC50 for human Jurkat cells assessed as cell growth inhibition incubated for 24 to 72 hrs by MTT assay; assay type: functional; details: time 24-72 hrs
NAMALVA = assay: Induction of apoptosis in human NAMALVA cells at IC50 measured after 48 hrs by flow cytometry; assay type: functional, cell-based
Jurkat [15] = assay: Inhibition of cell proliferation of human Jurkat cells assessed as reduction in Ki-67 expression at IC50 measured after 48 hrs by flow cytometry; assay type: functional, cell-based
[16] = Selectivity index, ratio of IC50 for human HS5 cells to IC50 for human Jurkat cells; assay type: functional

inhibition [1] | inhibition (Histone deacetylase 1 [2]) | inhibition at 10 min, 10 µM (CYP1A2) | IC50 [6] | IC50 (Jurkat [7]) | inhibition [9] | inhibition [10] | inhibition (Histone deacetylase 1 [11]) | inhibition [12] | half-life at 1 µM [13] | SMILES | inhibition (U-937) | Ratio IC50 [3] | Ratio IC50 [4] | Ratio IC50 [5] | Ratio IC50 [8] | Ratio IC50 (Jurkat [14]) | Activity (NAMALVA) | inhibition (Jurkat [15]) | Ratio IC50 [16]
Active | Active | 46% | 34600 nM | 20 nM | 94.5% | 99.9% | Active | 29.8% | 35 min | O=C(NO)c1ccc(Cn2cnc3c(Nc4ccc(F)c(Cl)c4)ncnc32)cc1 | Active | 83 | >=100 | >=100 | 83 | <=10 | Active | Active | >=100
Active | Active | 50% | – | 50 nM | – | – | Active | – | 50 min | COc1ccc(Nc2ncnc3c2ncn3Cc2ccc(C(=O)NO)cc2)cc1 | Active | 83 | >=100 | >=100 | 83 | <=10 | Active | Active | >=100
